Experimental data taken from PubChem BioAssay (NCI).
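Cultured in 96-well plates, cells were exposed to test compound for 48 hours across five concentrations. TGI: concentration producing complete growth inhibition.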

Tests used:
Assay in all cases: NCI tumour cell line growth inhibition, 48 h
SNB-75 CNS = system: SNB-75 CNS
UO-31 renal = system: UO-31 renal
NCI-H23 lung = system: NCI-H23 lung
MDA-MB-435 = system: MDA-MB-435
RPMI-8226 leukemia = system: RPMI-8226 leukemia
ACHN renal = system: ACHN renal
LOX IMVI melanoma = system: LOX IMVI melanoma
SK-OV-3 ovarian = system: SK-OV-3 ovarian
A549 NSCLC = system: A549 NSCLC
CAKI-1 renal = system: CAKI-1 renal
OVCAR-5 ovarian = system: OVCAR-5 ovarian
HOP-62 NSCLC = system: HOP-62 NSCLC
OVCAR-8 ovarian = system: OVCAR-8 ovarian
MDA-N = system: MDA-N
EKVX NSCLC = system: EKVX NSCLC
NCI-H460 lung = system: NCI-H460 lung
SNB-19 CNS = system: SNB-19 CNS
DU-145 prostate = system: DU-145 prostate
CCRF-CEM leukemia = system: CCRF-CEM leukemia
HT29 colon = system: HT29 colon
SK-MEL-2 melanoma = system: SK-MEL-2 melanoma
A498 renal = system: A498 renal
SF-539 CNS = system: SF-539 CNS
RXF 393 renal = system: RXF 393 renal
PC-3 prostate = system: PC-3 prostate
MCF7 breast = system: MCF7 breast
SK-MEL-5 melanoma = system: SK-MEL-5 melanoma
MOLT-4 leukemia = system: MOLT-4 leukemia
K-562 leukemia = system: K-562 leukemia
MALME-3M melanoma = system: MALME-3M melanoma
NCI/ADR-RES ovarian = system: NCI/ADR-RES ovarian
SW-620 colon = system: SW-620 colon
HL-60(TB) leukemia = system: HL-60(TB) leukemia
HCT-15 colon = system: HCT-15 colon
KM12 colon = system: KM12 colon
OVCAR-4 ovarian = system: OVCAR-4 ovarian
SR leukemia = system: SR leukemia
786-0 renal = system: 786-0 renal
UACC-257 melanoma = system: UACC-257 melanoma
BT-549 breast = system: BT-549 breast
HS 578T breast = system: HS 578T breast
MDA-MB-231 breast = system: MDA-MB-231 breast
TK-10 renal = system: TK-10 renal
IGROV1 ovarian = system: IGROV1 ovarian
NCI-H522 lung = system: NCI-H522 lung
HOP-92 NSCLC = system: HOP-92 NSCLC
HCT-116 colon = system: HCT-116 colon
SF-295 CNS = system: SF-295 CNS
SN12C renal = system: SN12C renal
T-47D breast = system: T-47D breast
SK-MEL-28 melanoma = system: SK-MEL-28 melanoma
SF-268 CNS = system: SF-268 CNS
COLO 205 colon = system: COLO 205 colon
UACC-62 melanoma = system: UACC-62 melanoma
U251 CNS = system: U251 CNS
M14 melanoma = system: M14 melanoma
OVCAR-3 ovarian = system: OVCAR-3 ovarian
NCI-H226 lung = system: NCI-H226 lung

Measured: TGI

CCOc1ccccc1/C=C(/C#N)C(N)=O
> 100 µM: SNB-75 CNS | UO-31 renal | NCI-H23 lung | RPMI-8226 leukemia | ACHN renal | LOX IMVI melanoma | SK-OV-3 ovarian | A549 NSCLC | CAKI-1 renal | OVCAR-5 ovarian | HOP-62 NSCLC | OVCAR-8 ovarian | EKVX NSCLC | NCI-H460 lung | SNB-19 CNS | DU-145 prostate | HT29 colon | SK-MEL-2 melanoma | A498 renal | SF-539 CNS | RXF 393 renal | PC-3 prostate | MCF7 breast | SK-MEL-5 melanoma | MOLT-4 leukemia | K-562 leukemia | MALME-3M melanoma | NCI/ADR-RES ovarian | SW-620 colon | HL-60(TB) leukemia | HCT-15 colon | KM12 colon | OVCAR-4 ovarian | SR leukemia | 786-0 renal | UACC-257 melanoma | BT-549 breast | HS 578T breast | MDA-MB-231 breast | TK-10 renal | IGROV1 ovarian | NCI-H522 lung | HOP-92 NSCLC | HCT-116 colon | SF-295 CNS | SN12C renal | T-47D breast | SK-MEL-28 melanoma | SF-268 CNS | COLO 205 colon | UACC-62 melanoma | U251 CNS | M14 melanoma | OVCAR-3 ovarian | NCI-H226 lung
41.9 µM: MDA-MB-435
73.7 µM: CCRF-CEM leukemia
45.7 µM: MDA-N

C#CC1(O)C(COP(=O)(O)OC(COCCCCCCCCCCCCCCCCCC)COP(=O)(O)OCC2OC(n3cc(C)c(=O)[nH]c3=O)CC2N=[N+]=[N-])OC(n2ccc(N)nc2=O)C1O (centres undefined)
59.5 µM: MOLT-4 leukemia
17.6 µM: NCI-H460 lung
> 29 µM: CAKI-1 renal
17.3 µM: SNB-19 CNS
> 92.7 µM: OVCAR-5 ovarian
62.9 µM: HS 578T breast
30.6 µM: RXF 393 renal
22.4 µM: SK-MEL-28 melanoma
21.7 µM: SF-268 CNS
13 µM: LOX IMVI melanoma
31.9 µM: HOP-92 NSCLC
> 47.8 µM: HCT-15 colon
29.7 µM: SK-OV-3 ovarian
18.8 µM: UACC-62 melanoma
5.23 µM: COLO 205 colon
> 50.9 µM: HT29 colon
8.38 µM: MDA-MB-435
16 µM: HL-60(TB) leukemia
> 81.6 µM: PC-3 prostate
> 42.2 µM: OVCAR-8 ovarian
> 77.3 µM: UACC-257 melanoma
30.9 µM: OVCAR-4 ovarian
32.2 µM: MDA-MB-231 breast
> 67.2 µM: EKVX NSCLC
8.67 µM: MCF7 breast
26.1 µM: M14 melanoma
22.3 µM: SNB-75 CNS
16.6 µM: NCI/ADR-RES ovarian
20.2 µM: A549 NSCLC
36.8 µM: MALME-3M melanoma
23.1 µM: NCI-H23 lung
> 91.2 µM: NCI-H226 lung
> 74.2 µM: HOP-62 NSCLC
> 71.4 µM: K-562 leukemia
2.44 µM: SK-MEL-2 melanoma
2.69 µM: UO-31 renal
17.1 µM: A498 renal
> 100 µM: DU-145 prostate | SK-MEL-5 melanoma | 786-0 renal | HCT-116 colon | SN12C renal
> 72.5 µM: ACHN renal
14.1 µM: SF-539 CNS
31 µM: BT-549 breast
33.4 µM: SW-620 colon
18.9 µM: CCRF-CEM leukemia
1.33 µM: NCI-H522 lung
> 86.3 µM: SR leukemia
22 µM: U251 CNS
10.7 µM: SF-295 CNS
28.7 µM: OVCAR-3 ovarian
10.2 µM: TK-10 renal
1.05 µM: RPMI-8226 leukemia
20.5 µM: MDA-N | KM12 colon
5.05 µM: IGROV1 ovarian
> 77 µM: T-47D breast

c1ccc(COC2NCCN2Cc2ccccc2)cc1 (centres undefined)
> 100 µM: SNB-75 CNS | UO-31 renal | NCI-H23 lung | MDA-MB-435 | RPMI-8226 leukemia | ACHN renal | LOX IMVI melanoma | SK-OV-3 ovarian | A549 NSCLC | CAKI-1 renal | OVCAR-5 ovarian | HOP-62 NSCLC | OVCAR-8 ovarian | MDA-N | EKVX NSCLC | NCI-H460 lung | SNB-19 CNS | DU-145 prostate | CCRF-CEM leukemia | HT29 colon | SK-MEL-2 melanoma | A498 renal | SF-539 CNS | RXF 393 renal | PC-3 prostate | MCF7 breast | SK-MEL-5 melanoma | MOLT-4 leukemia | K-562 leukemia | MALME-3M melanoma | NCI/ADR-RES ovarian | SW-620 colon | HL-60(TB) leukemia | HCT-15 colon | KM12 colon | OVCAR-4 ovarian | SR leukemia | 786-0 renal | UACC-257 melanoma | BT-549 breast | HS 578T breast | MDA-MB-231 breast | TK-10 renal | IGROV1 ovarian | NCI-H522 lung | HOP-92 NSCLC | HCT-116 colon | SF-295 CNS | SN12C renal | T-47D breast | SK-MEL-28 melanoma | SF-268 CNS | COLO 205 colon | UACC-62 melanoma | U251 CNS | M14 melanoma | OVCAR-3 ovarian | NCI-H226 lung
